The text below walks through data of patent US8962263B2, “Methods and compositions for detecting the activation state of multiple proteins in single cells” (The Board of Trustees of the Leland Stanford Junior …, priority 2001, dated 2015).

The test system of one data set is Jurkat T cells. Kind of data set: anti-Fas induced apoptosis in ICAM-2 crosslinked Jurkat cells, annexin-V binding assay. Type of data set: cell-based, human. The note with it: inhibitor 10 μM 1 hour, anti-Fas 50 ng/ml 8 hours. The method, then:
A) ICAM-2, crosslinking induced AKT activity in Jurkat T cells and subsequent phosphorylation of GSK3, FKHR, and AFX as a function of time. Serum starved Jurkat T cells were incubated with either isotype control or anti-human ICAM-2, (10, μg/ml) for the indicated times. AKT kinase activity was determined as described. Immunoblot analysis verified AKT dual phosphorylation, FKHR and GSK3 phosphorylation, and BAD phosphorylation as a function of ICAM-2, crosslinking. B) ICAM-2 crosslinking induces AKT activity in BaF3, pre-B cells. […] ICAM-2, was crosslinked on 106, Jurkat T cells using an ICAM-2, mAb (10, μg/ml) 30, minutes prior to treatment with staurosporine (+) or DMSO vehicle (−). Apoptosis was determined by flow cytometry using annexin-V binding assay. […] Cells were assessed for apoptosis by annexin-V binding assay. […]
Apoptosis was determined either by counting pyknotic nuclei, annexin-V binding by flow cytometry, or TUNEL BrdU staining by flow cytometry as indicated. Apoptosis was induced either by staurosporine (1 μm), treatment with anti-mouse Fas (5 μq/ml Santa Cruz Biotechnology (SCB), anti-human Fas ([…]) as indicated in appropriate experiment, IL-3 withdrawal-(24 hrs) or as indicated. For pyknolic nuclei count, NIH3T3 cells were grown on glass coverslips and assayed for apoptosis. Suspension cells were analyzed by nuclear staining with 25 μM acridine orange/25 μm ethidium bromide or 5 μg/ml Hoechst 33342 (Molecular Probes, Eugene, Oreg.). Apoptosis was identified by the presence of characteristic pyknotic nuclei as described (Jacobson and Raff, 1995). At least 5 individual fields were photographed and counted using a Zeiss axioscope fluorescence microscope. […] The cells were trypsinized and viable cells counted following trypan blue staining. Untreated cells were counted at the time of treatment. % survival represents (number of viable cells post-treatment)/(number of viable cells pretreatment). […] Flow cytometry analysis was performed on a BD FACSCalibur machine with CELLQuest and analyzed using FlowJo software (Tree Star).

For a further data set, the system named is p44/42 MAPK. Kind of data set: intracellular phospho-p44/42 MAPK by flow cytometry in ICAM-2 treated Jurkat cells. Type of data set: cell-based, human. The settings on record: chemical agents 10 μM, EDTA 1 mM; mAbs titrated prior to ICAM-2. The text has this: A) Mean fluorescent intensity values (MFI) of ICAM-2-FITC (adhesion) and mAb24-Alexa633, (LFA-1, activation) in treated Jurkat cells (as above). Control unstimulated and/or compound pretreated values were subtracted. B) Top panel: Intracellular phospho-p44/42, MAPK detection as a function of ICAM-2, dose in Jurkat cells by flow cytometry (see Material and Methods). Mean fluorescent intensity values (MFI) were plotted±standard deviation (SD). Bottom panel: ICAM-2, treated Jurkat cells were stained for intracellular phospho-p44/42, MAPK as described above. mAbs to β2, and αL, integrins (10, μg/ml, 10, minutes) were titrated prior to ICAM-2, treatment as indicated and plotted for MFI±SD. C) ICAM-2, induced p44/42, MAPK activity is blocked by β2, and αL, integrin antibodies as determined by a p44/42 MAPK kinase assay. Conditions for induction and inhibition are as described above. Recombinant active p44/42, MAPK served as an internal positive control (denoted by “+”). D) Inhibition and activation profile for intracellular phospho-p44/42, by flow cytometry in the presences of chemical agents (10, μM), EDTA (1, mM), or PMA, ionomycin and ICAM-2, stimulus (as indicated above). MFI values±SD are plotted.
(§1) Intracellular and extracellular staining was performed as described (Perez and Nolan, 2002). Intracellular probes for active kinases were made by conjugating phospho-specific antibodies to the ALEXA FLUOR® dye series as described and used in phospho-protein optimized conditions (Perez and Nolan, 2002). Kinetic analyses was performed by direct application of fixation buffer in time synchronized 96-wells maintained at 37° C. Intracellular actin and microtubule staining was performed using phalloidin-Alexa633 and taxol-Alexa546 dyes (Molecular Probes). Adhesion and clustering assays were performed using ICAM-2-FITC as described in text. LFA-1 activation was assessed by either mAb24-Alexa633 or mAb24-Alexa546 conjugate, surface stained at 37° C. Flow cytometry data are representative of 3 independent experiments of 10^6 cells/sample. 10-50,000 events were collected and manually calibrated on a FACSCalibur™ machine. Data plotted in bar graph format is expressed as geometric mean fluorescence intensity (MFI) and normalized for isotype controls. Log ratios are defined as the MFI of stimulus to the MFI of unstimulated cells. Data was analyzed using Flowjo™ software (Treestar).

Another data set concerns LFA-1. Kind of data set: LFA-1 activation by mAb24-Alexa633 staining, flow cytometry. The format is cell-based, human. The settings on record: Jurkat cells; agents 10 μM 30 min, PMA 1 μg/ml, prior to ICAM-2 10 μg/ml 30 min. The method, then:
A) Confocal microscopy of actin and microtubule architecture upon ICAM-2, stimulus (10, μg/ml, 30, min) in Jurkat cells. Actin was stained by phalloidin-alexa633, and tubulin by taxol-alexa546. Inserts display enlarged cell image of representative treatment B) Flow cytometric staining for actin and microtubules as described above. C) Left: Fluorescence topography analysis of ICAM-2-FITC (1 μg/ml, time as indicated) surface distribution. Intensity color gradient depicts high and low fluorescent intensity values. Right: Confocal microscopy of ICAM-2-FITC surface binding (10 μg/ml, 30, min) and anti-β2-alexa568, (clone CTB104). D) Staining for ICAM-2-FITC surface binding (fluorescence intensity) and surface distribution (fluorescence pulse) in cytochalisin D treated Jurkat cells at 37° C. and 4° C. by flow cytometry. E) Values for ICAM-2-FITC fluorescence intensity per time-of-flight per cell as described in text. F) Flow cytometric staining for LFA-1 activation by mAb24-alexa633. Stimuli as indicated (10, μM, 30, min), PMA (1, μg/ml) prior to ICAM-2, stimulation (10, μg/ml, 30, min). Staining was performed at 37° C. G) Mean fluorescence intensity (MFI) values of mAb24-633, and ICAM-2, cluster values, computed as described above, as a function of time.
as §1

The target of a further data set is T1, cell surface LFA-1 (Homo sapiens, UniProt P20701).
T1 construct: within the physiological context of cell surface LFA-1; endogenous in cells; host or cells: Jurkat T cells
T1 sequence (P20701 26-1170): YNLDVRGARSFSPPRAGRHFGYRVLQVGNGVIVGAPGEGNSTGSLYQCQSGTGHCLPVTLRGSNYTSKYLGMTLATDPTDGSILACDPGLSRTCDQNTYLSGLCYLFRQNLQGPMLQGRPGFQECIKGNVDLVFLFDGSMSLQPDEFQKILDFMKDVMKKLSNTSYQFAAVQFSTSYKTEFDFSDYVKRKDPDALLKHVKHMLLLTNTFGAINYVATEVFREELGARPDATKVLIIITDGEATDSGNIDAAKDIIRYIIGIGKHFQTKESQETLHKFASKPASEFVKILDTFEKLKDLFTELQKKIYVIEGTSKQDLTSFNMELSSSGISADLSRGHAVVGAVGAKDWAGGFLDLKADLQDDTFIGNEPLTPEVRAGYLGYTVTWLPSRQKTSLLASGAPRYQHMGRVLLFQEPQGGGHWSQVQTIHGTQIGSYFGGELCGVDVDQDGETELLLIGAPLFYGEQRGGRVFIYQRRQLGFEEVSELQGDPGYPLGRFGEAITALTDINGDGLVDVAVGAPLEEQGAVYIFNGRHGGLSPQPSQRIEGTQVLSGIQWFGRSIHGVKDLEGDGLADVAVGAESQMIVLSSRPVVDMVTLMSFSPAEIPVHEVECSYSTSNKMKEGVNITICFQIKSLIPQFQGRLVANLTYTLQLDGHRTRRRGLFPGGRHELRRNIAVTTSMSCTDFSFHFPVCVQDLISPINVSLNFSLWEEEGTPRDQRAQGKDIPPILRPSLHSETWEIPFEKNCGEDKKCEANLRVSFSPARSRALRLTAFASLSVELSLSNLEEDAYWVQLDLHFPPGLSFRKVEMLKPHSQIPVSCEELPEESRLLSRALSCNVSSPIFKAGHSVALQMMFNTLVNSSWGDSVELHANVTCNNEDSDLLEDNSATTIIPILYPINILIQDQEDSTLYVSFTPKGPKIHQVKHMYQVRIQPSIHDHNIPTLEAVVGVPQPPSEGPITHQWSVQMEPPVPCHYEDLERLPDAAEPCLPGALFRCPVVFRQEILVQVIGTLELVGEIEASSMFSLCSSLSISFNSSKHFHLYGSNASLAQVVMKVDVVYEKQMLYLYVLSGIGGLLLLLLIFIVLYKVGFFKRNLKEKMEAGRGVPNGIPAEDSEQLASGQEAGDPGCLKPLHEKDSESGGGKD
T1 sequence (P05107 23-769 partner): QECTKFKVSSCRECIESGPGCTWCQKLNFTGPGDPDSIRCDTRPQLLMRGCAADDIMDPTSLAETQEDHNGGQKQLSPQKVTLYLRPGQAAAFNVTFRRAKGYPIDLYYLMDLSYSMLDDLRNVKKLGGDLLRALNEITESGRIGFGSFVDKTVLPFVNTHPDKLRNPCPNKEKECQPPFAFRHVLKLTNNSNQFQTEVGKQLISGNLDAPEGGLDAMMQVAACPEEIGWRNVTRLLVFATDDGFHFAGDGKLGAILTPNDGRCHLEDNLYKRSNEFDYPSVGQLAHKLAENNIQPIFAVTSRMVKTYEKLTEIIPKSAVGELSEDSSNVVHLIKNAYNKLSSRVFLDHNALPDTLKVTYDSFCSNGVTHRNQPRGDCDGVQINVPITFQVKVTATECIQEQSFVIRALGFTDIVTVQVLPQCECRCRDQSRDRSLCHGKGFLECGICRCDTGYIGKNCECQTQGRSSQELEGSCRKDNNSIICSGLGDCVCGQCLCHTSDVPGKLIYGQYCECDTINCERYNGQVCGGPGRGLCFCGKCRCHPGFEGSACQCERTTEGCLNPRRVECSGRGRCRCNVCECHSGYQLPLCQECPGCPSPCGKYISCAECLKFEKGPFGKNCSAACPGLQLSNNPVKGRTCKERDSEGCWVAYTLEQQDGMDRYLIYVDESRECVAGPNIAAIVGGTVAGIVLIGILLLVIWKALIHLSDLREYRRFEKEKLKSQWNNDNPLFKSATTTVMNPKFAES
Put plainly: ICAM-2-FITC surface binding on Jurkat cells by flow cytometry (single cell binding measurements). The settings on record: cytochalisin D treated Jurkat cells. On the procedure: A) Purified human ICAM-2, from retrovirally transduced NIH3T3, (see materials and methods) was tested for purity, size, and aggregate formation by native gel electrophoresis and gel filtration. Analysis of purified ICAM-2, from two different preps and ICAM2-FC from NSO cells. Molecular weight was calculated using relative distance migration from a molecular weight standard. Concentration was determined using serial dilutions of BSA as a standard. […] B) ICAM-2, ligand binding to cell surface as a function of time. 5×10^6, unstimulated and PMA stimulated (1, μg/ml, 30, min) Jurkat T cells were incubated with ICAM-2-FITC or LFA-1-FITC antibody (1, μg/ml) and subjected to time dependent flow cytometry. Mean fluorescence intensity was plotted per time of a gated homogenous cell population. Flow rate was maintained at 200-300, cells/second, with fluorescence intensity values acquired at 10, millisecond intervals for 1200, seconds. C) Flow cytometric analysis of ICAM-2-FITC and a-LFA-1-FITC surface binding on cytochalisin D treated (10, μM, 30, min) Jurkat cells at 37° C. and 4° C. D) Curve fit analysis of ICAM-2-FITC binding per 10^4, cells. Jurkat cells were incubated with ICAM-2-FITC at 37° C. for 30, min at indicated concentrations in 50, μL volume. Cells were washed 1×, and analyzed for mean fluorescent intensity (MFI) of 10^4, cells. Percent ICAM-2-FITC bound was calculated from the following equation: 100×[(MFI[×]−MFIunstained)/(MFI[saturated]−MFIunstained)] where [×]=ICAM-2-FITC concentration and [saturated]=concentration that saturated binding. Values were fit to the equation Y=m1*M0/(m2+M0) (see materials and methods).
Full length ICAM2 cDNA was obtained from Jurkat cells and cloned into retroviral vector PBM-Z-IN at the BamHI/Sal1 site as described (Perez et al., 2002). Human ICAM-2 was overexpressed in NIH3T3 cells by retroviral infection and harvested by immunoaffinity chromatography. ICAM-2 was affinity purified using a two step lysing procedure and subsequent purification on an anti-ICAM-2 solid support. […] Batch lysate of harvested supernatant was performed (4° C., for 2 hrs), and washed 4 times in buffer C (0.1% Tween-20, PBS pH 7.4). ICAM-2 protein was eluted by 4.5 M NaCl (in Tris pH 6.8), dialyzed overnight (in PBS pH 7.4, 0.001% azide, 0.01% glycerol, 4° C.), concentrated using size exclusion spin chromatography and stabilized using 0.01% glycerol. Anti-ICAM-2 solid support was re-equilibrated in buffer C, stored in 0.001% thimerosol and re-used up to 3 times. Purity was >98% as assessed by coomasie gel. […] Gel imaging was performed on a VersaDoc machine (Biorad) and analyzed using Quantity One quantitation software (Biorad). […]

The subject of the next data set is ezrin. Kind of data set: phosphotyrosine-protein based elisa for ezrin tyrosine phosphorylation upon ICAM-2 ligation. Type of data set: cell-based, human. The settings on record: Jurkat cells. On the procedure:
A) Expression levels of ICAM-2, vary across cell lines of different origins. Quantitative flow cytometry analysis was performed to assess the number of ICAM-2 surface molecules across transformed and untransformed fibroblasts, lymphocytes of T-cell and different B-cell differentiation states and myeloid lineages (see Material and Methods for elaboration). The number of surface molecules/cell is expressed as the mean (bar)+/−SD of triplicate experiments. B) Crosslinking of endogenous ICAM-2, induces ezrin tyrosine phosphorylation and enhanced ICAM-2, interaction. Jurkat cells were crosslinked for ICAM-2 using monoclonal antibody for the indicated times and subjected to immunoprecipitation/immunoblotting as indicated. C) Inhibition of ezrin phosphotyrosine by chemical inhibitors of src and Rho-dependent kinases. D) Ezrin phosphorylation and enhanced interaction with the p85, subunit of PI3K as a function of ICAM-2. Determined as described above. E) PDK-1, activity as a function of ICAM-2, ligation, as described above). F) PI3K and AKT localize to the membrane as a function of ICAM-2, ligation. Membrane/cytosolic fractionation was performed on ICAM-2, ligated Jurkat cells as a function of time and subjected to immunoblotting for PI3K and AKT.
In order to identify upstream kineses capable of tyrosine phosphorylating ezrin as a function of ICAM-2 ligation, we developed a phosphotyrosine-protein based elisa to screen for the inhibition of ezrin tyrosine phosphorylation in vivo by various known inhibitors of protein kineses (Perez and Nolan, manuscript in preparation). […] Given the design of the screen to detect tyrosine residue phosphorylation, we speculate that activation of Rho-dependent processes may be a prerequisite for ezrin to be tyrosine phosphorylated by src (elaborated below).

Description for CD19+ human B cells: Apoptosis was measured by annexin-V binding detected by flow cytometry, and gated for CD19+, cells. […] Apoptosis was measured by annexin-V binding assay.
Antibody cross-linking experiments were performed using mAbs to anti-ICAM-1, anti-ICAM-2, anti-ICAM-3, anti-CD43, or anti-CD44 that recognizes the N-terminal region (extracellular domain) at 10 μg/ml. Spin dialysis (Biorad) was used for buffer exchange of azide containing antibodies (0.01%) to phosphate buffered saline buffer pH 7.4. Anti-mouse IgG (Sigma) was used as a control antibody in cross-linking experiments. 1×10^6 Jurkat, 1×10^6 BaF3, or 1×10^7 PBMC cells were serum starved for 4 hours respectively (except PBMC). Cells were incubated with either mAb (10 μg/ml) or mouse IgG (10 μg/ml) at 37° C. for the indicated time. Time points began post serum starvation to attenuate most of the signaling pathways or as indicated. […] Cells extracts were taken and subjected to either immunoprecipitation or immunoblotting were appropriate. Primary cells were subjected to apoptotic treatment followed by preparation for flow cytometry. GTPγS was made cell permeant by pre-incubating compound with Fugene (Roche Biochemicals) in a 1:4 molar ratio for 30 minutes at 25° C. prior to being applied to cells.

Consider `Nc1nc2c(ncn2[C@@H]2O[C@H](COP(=O)(O)OP(=O)(O)OP(O)(O)=S)[C@@H](O)[C@H]2O)c(=O)[nH]1` [GTPγS], for which the “apoptosis in primary cells on incubation with compound” value in the data set with CD19+ human B cells is given as “induced apoptosis”. In the data set with Jurkat T cells, the “ICAM-2 crosslinking protection against Fas induced apoptosis” value is reported as “abrogated”.

On to cytochalisin D, for which, in the data set on p44/42 MAPK, the “effect on ICAM-2 induced p44/42 MAPK phosphorylation” value is on record as “diminished”. The “LFA-1 activation (mAb24 binding)” value in the data set on LFA-1 is given as “attenuated”. Further, on cell surface LFA-1, the “LFA-1 receptor clustering and ICAM-2 binding” value is “enhanced LFA-1 receptor clustering and subsequent ICAM-2 binding”.

In the case of `CO[C@H]1[C@@H](OC)C[C@H](C)[C@@H](OC)C2=CC(=O)C=C(NC(=O)/C(C)=C/C=C\[C@H](OC)[C@@H](OC(N)=O)/C(C)=C/[C@@H]1C)C2=O` [herbimycin A], the “effect on ICAM-2 induced p44/42 MAPK phosphorylation” value in the data set on p44/42 MAPK is on record as “no effect”. The “tyrosine phosphorylation of ezrin” value with ezrin is “inhibit tyrosine phosphorylation of ezrin”. In addition, the “apoptosis in primary cells on incubation with compound” value with CD19+ human B cells is on record as “induced apoptosis”. Moreover, in the data set on Jurkat T cells, the “ICAM-2 crosslinking protection against Fas induced apoptosis” value is reported as “abrogated”.
